molecular target: T1, PPAR-γ (Homo sapiens, UniProt P37231); assay: Scintillation Proximity Assay (SPA), displacement of 3H labeled darglitazone from PPAR-γ; assay type: binding; details: PPAR protein on polylysine beads, read-out: PPAR-γKi
T1 sequence (P37231 1-505): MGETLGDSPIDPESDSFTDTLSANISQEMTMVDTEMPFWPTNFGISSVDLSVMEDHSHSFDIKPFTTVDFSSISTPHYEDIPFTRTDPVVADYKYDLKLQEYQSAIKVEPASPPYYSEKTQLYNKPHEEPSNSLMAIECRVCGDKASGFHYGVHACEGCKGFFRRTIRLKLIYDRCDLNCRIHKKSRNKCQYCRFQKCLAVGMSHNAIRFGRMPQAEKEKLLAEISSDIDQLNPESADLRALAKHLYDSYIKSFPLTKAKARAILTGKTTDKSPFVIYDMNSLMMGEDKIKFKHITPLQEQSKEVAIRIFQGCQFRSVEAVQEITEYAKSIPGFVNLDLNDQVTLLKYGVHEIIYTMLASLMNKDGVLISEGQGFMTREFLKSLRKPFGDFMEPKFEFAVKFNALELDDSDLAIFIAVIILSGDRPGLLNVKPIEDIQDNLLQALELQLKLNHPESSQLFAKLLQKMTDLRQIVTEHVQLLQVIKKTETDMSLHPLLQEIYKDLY
Excerpt: Scintillatian Proximity Assay (SPA) Assays
In the SPA assay, 3H labeled darglitazone (for PPAR-γ) or GW^2331 (for PPAR-α) in bound to the PPAR protein captured on SPA polylysine beads and generates radioactive count signal that can be detected by TopCounts (Packard). The PPAR-bound 3H labeled ligand can be displaced by an unlabeled compound. The Ki of the compound can be then determined by the extent of displacement at various compound concentrations.
SPA polylysine beads, which can be purchased from Amersham Bioscience.
3H labeled Darglitazone for PPAR-γ.
Buffer—PBS, 10% glycerol, 14 mM beta-mercaptoethanol.

Ki [µM]	SMILES
> 50	Cc1oc(-c2ccccc2)nc1COc1ccc2cnn(CC(=O)O)c2c1 [Example 4, {6-[(5-methyl-2-phenyl-1,3-oxazol-4-yl)methoxy]-1H-indazol-1-yl}acetic acid]
> 100	O=C(O)CCCn1ncc2ccc(OCc3nc(-c4ccccc4)oc3-c3ccccc3)cc21 [Example 10, 4-{6-[(2,5-diphenyl-1,3-oxazol-4-yl)methoxy]-1H-indazol-1-yl}butanoic acid]
> 100	O=C(O)CCCn1ncc2c(OCc3nc(-c4ccccc4)oc3-c3ccccc3)cccc21 [Example 11, 4-{4-[(2,5-diphenyl-1,3-oxazol-4-yl)methoxy]-1H-indazol-1-yl}butanoic acid]
4	O=C(O)Cn1ncc2c(OCc3nc(-c4ccccc4)oc3-c3ccccc3)cccc21 [Example 12, {4-[(2,5-diphenyl-1,3-oxazol-4-yl)methoxy]-1H-indazol-1-yl)acetic acid]
41	Cc1oc(-c2ccccc2)nc1COc1ccc2cnn(CCC(=O)O)c2c1 [Example 13, 3-{6-[(5-methyl-2-phenyl-1,3-oxazol-4-yl)methoxy]-1H-indazol-1-yl}propanoic acid]
10	Cc1oc(-c2ccccc2)nc1COc1cccc2c1cnn2CCCC(=O)O [Example 15, 4-{4-[(5-methyl-2-phenyl-1,3-oxazol-4-yl)methoxy]-1H-indazol-1-yl}butanoic acid]
> 100	Cc1oc(-c2ccccc2)nc1COc1cccc2c1cnn2CC(=O)O [Example 16, {4-[(5-methyl-2-phenyl-1,3-oxazol-4-yl)methoxy]-1H-indazol-1-yl}acetic acid]
4	Cc1oc(-c2ccccc2)nc1COc1cccc2c1cnn2CCC(=O)O [Example 17, 3-{4-[(5-methyl-2-phenyl-1,3-oxazol-4-yl)methoxy]-1H-indazol-1-yl}propanoic acid]
> 50	Cc1oc(-c2ccccc2)nc1CCOc1cccc2c1cnn2CCCC(=O)O [Example 18]
> 50	Cc1oc(-c2ccccc2)nc1CCOc1ccc2cnn(CCC(=O)O)c2c1 [Example 21, 3-{6-[2-(5-methyl-2-phenyl-1,3-oxazol-4-yl)ethoxy]-1H-indazol-1-yl}propanoic acid]
> 50	Cc1oc(-c2ccccc2)nc1CCOc1ccc2cnn(CCCC(=O)O)c2c1 [Example 22, 4-{6-[2-(5-methyl-2-phenyl-1,3-oxazol-4-yl)ethoxy]-1H-indazol-1-yl}butanoic acid]
> 50	Cc1oc(-c2ccccc2)nc1CCCOc1cccc2c1cnn2CCCC(=O)O [Example 23, 4-{4-[3-(5-methyl-2-phenyl-1,3-oxazol-4-yl)propoxy]-1H-indazol-1-yl}butanoic acid]
> 50	Cc1oc(-c2ccccc2)nc1CCOc1ccnc2c1ccn2CC(=O)O [Example 29, {4-[2-(5-methyl-2-phenyl-1,3-oxazol-4-yl)ethoxy]-1H-pyrrolo[2,3-b]pyridin-1-yl}acetic acid]
19	Cc1oc(-c2ccccc2)nc1CCOc1cccc2c1c(C(=O)C(F)(F)F)cn2CCC(=O)O [Example 44]
> 50	Cc1oc(-c2ccccc2)nc1CCn1ccc2c(OCC(=O)O)ccnc21 [Example 47]
> 50	Cc1oc(-c2ccccc2)nc1CCOc1cccc2c1cnn2CC(=O)O [Example 49]
4.9	Cc1oc(-c2ccccc2)nc1CCOc1cccc2c1c(Cl)cn2CCC(=O)O [Example 50]
> 100	Cc1oc(-c2ccccc2)nc1CCOc1cccc2c1ccn2CC(CCC(=O)O)C(=O)O (stereo not shown) [Example 51]
8.5	Cc1oc(-c2ccccc2)nc1CCOc1ccnc2c(CCC(=O)O)cccc12 [Example 53]
> 100	Cc1oc(-c2ccccc2)nc1COc1cccc2c1ccn2CCCC(=O)O [Example 55]

Continued, compound first:

SMILES	Ki [µM]
Cc1oc(-c2ccccc2)nc1CCOc1cccc2c1cnn2CCC(=O)O [Example 1, 3-{4-[2-(5-methyl-2-phenyl-1,3-oxazol-4-yl)ethoxy]-1H-indazol-1-yl}propanoic acid]	0.58
Cc1oc(-c2ccccc2)nc1COc1ccc2cnn(CCCC(=O)O)c2c1 [Example 3, 4-{6-[(5-methyl-2-phenyl-1,3-oxazol-4-yl)methoxy]-1H-indazol-1-yl}butanoic acid]	> 100
O=C(O)CCn1ncc2ccc(OCc3nc(-c4ccccc4)oc3-c3ccccc3)cc21 [Example 6, 3-{6-[(2,5-diphenyl-1,3-oxazol-4-yl)methoxy]-1H-indazol-1-yl}propanoic acid]	1.8
O=C(O)Cn1ncc2ccc(OCc3nc(-c4ccccc4)oc3-c3ccccc3)cc21 [Example 7, {6-[(2,5-diphenyl-1,3-oxazol-4-yl)methoxy]-1H-indazol-1-yl}acetic acid]	6.9
O=C(O)CCn1ncc2c(OCc3nc(-c4ccccc4)oc3-c3ccccc3)cccc21 [Example 14, 3-{4-[(2,5-diphenyl-1,3-oxazol-4-yl)methoxy]-1H-indazol-1-yl}propanoic acid]	3.7
Cc1oc(-c2ccccc2)nc1CCOc1ccc2cnn(CC(=O)O)c2c1 [Example 20, {6-[2-(5-methyl-2-phenyl-1,3-oxazol-4-yl)ethoxy]-1H-indazol-1-yl}acetic acid]	> 50
Cc1oc(-c2ccccc2)nc1CCCOc1cccc2c1cnn2CC(=O)O [Example 25, {4-[3-(5-methyl-2-phenyl-1,3-oxazol-4-yl)propoxy]-1H-indazol-1-yl}acetic acid]	> 50
Cc1oc(-c2ccccc2)nc1CCCOc1cccc2c1cnn2CCC(=O)O [Example 27, 3-{4-[3-(5-methyl-2-phenyl-1,3-oxazol-4-yl)propoxy]-1H-indazol-1-yl}propanoic acid]	> 50
Cc1oc(-c2ccccc2)nc1CCCn1ncc2c(OC(C)(C)C(=O)O)cccc21 [Example 33, 2-methyl-2-({1-[3-(5-methyl-2-phenyl-1,3-oxazol-4-yl)propyl]-1H-indazol-4-yl}oxy)propanoic acid]	7
Cc1oc(-c2ccccc2)nc1CCOc1cccc2c1ncn2CCC(=O)O [Example 34, 3-{4-[2-(5-methyl-2-phenyl-1,3-oxazol-4-yl)ethoxy]-1H-benzimidazol-1-yl}propanoic acid]	> 50
Cc1oc(-c2ccccc2)nc1CCOc1ccnc2c1ccn2CCC(=O)O [Example 45]	9
Cc1oc(-c2ccccc2)nc1CCNc1ccnc2c1ccn2CCC(=O)O [Example 46]	0.58
Cc1oc(-c2ccccc2)nc1CCOc1cccc2c1ccn2CC(=O)O [Example 48]	30
Cc1oc(-c2ccccc2)nc1CCOc1cccc2c1ccn2CCCC(=O)O [Example 54]	16

— patent publication US20040209929A1, “Fused heteroaryl carboxylic acids as PPAR agonists” (Agouron Pharmaceuticals, Inc., priority 2003, published 2004)
